Laboratory results reported in ChEMBL document CHEMBL1201862, “PubChem BioAssay data set” (2004).
Calls of active or inactive are those of the source.

Experiments:
[1] = biological target: FAD-linked sulfhydryl oxidase ALR (Homo sapiens, UniProt P55789); experiment: ALR-catalysed DTT oxidation blockers – biochemical, H2O2 detection, luminescence, cherry-pick, dose response (AID 493248)
[2] = biological target: T1, Heat shock factor protein 1 (Mus musculus, UniProt P38532); experiment: enhancement of HSF1-driven luciferase signal – cell-based, NIH3T3, luminescence, dose retest, confirmation (AID 435004); assay type: functional;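 also: stress induced by proteasome inhibitor MG132 added 30 min after compound; luciferase reporter driven by HSF1 response element in NIH3T3 cells; actives raise luminescence as potentiators of the MG132 stress response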
T1 sequence (P38532 whole entry): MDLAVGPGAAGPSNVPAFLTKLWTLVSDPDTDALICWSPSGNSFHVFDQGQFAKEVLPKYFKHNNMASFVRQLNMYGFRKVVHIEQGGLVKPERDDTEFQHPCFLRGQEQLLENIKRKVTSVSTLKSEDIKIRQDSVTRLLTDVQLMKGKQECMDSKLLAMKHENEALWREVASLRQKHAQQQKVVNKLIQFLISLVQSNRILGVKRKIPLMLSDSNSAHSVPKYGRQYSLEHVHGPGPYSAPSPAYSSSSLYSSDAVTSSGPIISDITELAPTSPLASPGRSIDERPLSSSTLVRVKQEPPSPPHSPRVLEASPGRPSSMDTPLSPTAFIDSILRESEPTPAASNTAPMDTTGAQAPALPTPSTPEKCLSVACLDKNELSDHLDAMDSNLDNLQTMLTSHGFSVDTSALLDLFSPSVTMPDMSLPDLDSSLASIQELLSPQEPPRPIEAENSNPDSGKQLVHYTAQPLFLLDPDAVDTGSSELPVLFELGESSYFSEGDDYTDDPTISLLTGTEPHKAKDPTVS

[3] = biological target: T2, Carboxy-terminal domain RNA polymerase II polypeptide A small phosphatase 1 (Homo sapiens, UniProt Q9GZU7); experiment: CTDSP1 inhibitors, concentration-response, biochemical, absorbance readout, ultra-high-throughput screen actives (AID 540297); assay type: functional
T2 sequence (Q9GZU7 whole entry): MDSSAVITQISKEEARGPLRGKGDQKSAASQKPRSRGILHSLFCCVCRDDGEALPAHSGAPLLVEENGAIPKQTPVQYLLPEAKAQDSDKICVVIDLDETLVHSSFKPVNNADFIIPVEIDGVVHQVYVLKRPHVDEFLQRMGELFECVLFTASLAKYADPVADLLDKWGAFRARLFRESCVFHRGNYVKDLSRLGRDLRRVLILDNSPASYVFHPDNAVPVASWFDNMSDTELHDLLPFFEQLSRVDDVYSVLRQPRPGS

[4] = biological target: Cytochrome P450 3A4 (Homo sapiens, UniProt P08684);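 also: CYP3A4 tested as one member of a cytochrome P450 panel screen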
[5] = HIV-1 AD8 envelope cell-cell fusion blockers – cherry-pick, dose response (AID 652062); assay type: functional, cell-based;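 also: luciferase signal from cell-cell fusion driven by HIV-1 clade B AD8 Env; potency is for inhibitors of fusion seen as a drop in luminescence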
[6] = fluconazole-exposed Candida albicans growth modulators – fluorescence, retest, confirmation (AID 2467); assay type: functional, cell-based
[7] = NIH-3T3 fibroblast cytotoxicity, dose response, cytotoxicity control, cell-based, fluorescence, Alamar Blue, secondary assay (AID 2327); assay type: functional;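 also: NIH-3T3 mouse fibroblasts cultured with fluconazole at 8 µg/mL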
[8] = biological target: T3, RNA-binding protein pos-1 (Caenorhabditis elegans, UniProt G5EF15); experiment: disruptors of C. elegans POS-1 RNA interaction – biochemical, fluorescence polarization, dose response (AID 1964);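 also: purified POS-1 fused to maltose binding protein made in E. coli; potency of compounds blocking POS-1 binding to fluorescent RNA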
T3 sequence (G5EF15 whole entry): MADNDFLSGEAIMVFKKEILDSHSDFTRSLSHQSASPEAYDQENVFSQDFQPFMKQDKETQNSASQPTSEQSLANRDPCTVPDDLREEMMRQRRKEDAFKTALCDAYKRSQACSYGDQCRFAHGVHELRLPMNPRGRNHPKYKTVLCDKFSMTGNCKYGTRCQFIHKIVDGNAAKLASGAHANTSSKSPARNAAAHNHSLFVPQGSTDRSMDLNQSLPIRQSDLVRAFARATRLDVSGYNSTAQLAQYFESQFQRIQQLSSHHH

[9] = biological target: T4, Zinc finger protein mex-5 (Caenorhabditis elegans, UniProt Q9XUB2); experiment: potency of MEX-5 RNA-binding blockers – biochemical, C. elegans, fluorescence polarization, dose response (AID 1960)
T4 sequence (Q9XUB2 whole entry): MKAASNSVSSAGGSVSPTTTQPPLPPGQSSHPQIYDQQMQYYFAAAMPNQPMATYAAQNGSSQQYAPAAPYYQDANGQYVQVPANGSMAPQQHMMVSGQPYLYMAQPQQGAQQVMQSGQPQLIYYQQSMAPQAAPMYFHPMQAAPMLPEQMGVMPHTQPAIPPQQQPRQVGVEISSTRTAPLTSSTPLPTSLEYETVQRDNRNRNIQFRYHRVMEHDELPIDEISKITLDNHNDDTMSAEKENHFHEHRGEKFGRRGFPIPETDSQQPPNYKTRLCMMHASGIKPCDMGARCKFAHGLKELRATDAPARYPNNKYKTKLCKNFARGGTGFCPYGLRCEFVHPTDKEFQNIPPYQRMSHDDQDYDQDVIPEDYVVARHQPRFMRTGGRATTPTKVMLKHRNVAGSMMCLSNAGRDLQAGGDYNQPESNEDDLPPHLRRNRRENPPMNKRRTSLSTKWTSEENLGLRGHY

[10] = viability of PTEN-deleted HCT116 cells – cell-based, HCT116 PTEN knockout, dose response (AID 1047); assay type: functional;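 also: HCT116 colon tumor cells with PTEN knocked out; cells exposed to compound for 60 hours before readout; potency for loss of cell viability measured by luminescence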
[11] = viability of HCT116 lacking mutant beta-catenin – cell-based, human colon tumor, dose response (AID 1045); assay type: functional;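 also: HCT116 colon tumor cells with beta catenin knocked out; cells exposed to compound for 60 hours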
[12] = biological target: T5, Polyadenylate-binding protein 1 (Homo sapiens, UniProt P11940); experiment: MLLE domain peptide-binding blockers, IC50 – biochemical, fluorescence polarization, FITC-PAM2 peptide, dose response (AID 602259); assay type: functional; settings: read-out: IC50_Mean
[13] = biological target: T5, Polyadenylate-binding protein 1; experiment: MLLE binding blockers, Cy5 peptide tracer – biochemical, fluorescence polarization, Cy5-PAM2 peptide, secondary, miRNA deadenylation inhibitor project, dose response (AID 602260); assay type: functional; settings: read-out: IC50_Mean
[14] = biological target: Nonstructural protein 1 (Influenza A virus, UniProt Q194T2); assay type: functional, Influenza A virus (A/California/07/2009(H1N1))
[15] = biological target: T6, Calpain-2 catalytic subunit (Sus scrofa, UniProt P43367); experiment: m-calpain protease blockers, concentration series – biochemical, fluorogenic peptide substrate, dose response (AID 1420); assay type: functional
T6 sequence (P43367 whole entry): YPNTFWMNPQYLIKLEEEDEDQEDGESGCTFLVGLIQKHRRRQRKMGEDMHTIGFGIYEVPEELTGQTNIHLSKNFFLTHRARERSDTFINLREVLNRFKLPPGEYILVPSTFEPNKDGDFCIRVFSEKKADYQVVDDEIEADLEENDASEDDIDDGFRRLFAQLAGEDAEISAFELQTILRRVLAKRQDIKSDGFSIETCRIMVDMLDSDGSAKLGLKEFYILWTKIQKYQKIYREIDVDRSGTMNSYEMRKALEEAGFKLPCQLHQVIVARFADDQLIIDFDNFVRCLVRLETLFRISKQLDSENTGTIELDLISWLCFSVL

Chain of FAD-linked sulfhydryl oxidase ALR (P55789 whole entry): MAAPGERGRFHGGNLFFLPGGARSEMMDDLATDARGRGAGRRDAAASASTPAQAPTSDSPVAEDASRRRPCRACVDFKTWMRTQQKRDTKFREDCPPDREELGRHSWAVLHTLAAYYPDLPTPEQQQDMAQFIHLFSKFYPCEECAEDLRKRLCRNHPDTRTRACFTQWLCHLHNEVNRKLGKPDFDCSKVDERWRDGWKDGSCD
T5 sequence (P11940 whole entry, the tested form may be a part): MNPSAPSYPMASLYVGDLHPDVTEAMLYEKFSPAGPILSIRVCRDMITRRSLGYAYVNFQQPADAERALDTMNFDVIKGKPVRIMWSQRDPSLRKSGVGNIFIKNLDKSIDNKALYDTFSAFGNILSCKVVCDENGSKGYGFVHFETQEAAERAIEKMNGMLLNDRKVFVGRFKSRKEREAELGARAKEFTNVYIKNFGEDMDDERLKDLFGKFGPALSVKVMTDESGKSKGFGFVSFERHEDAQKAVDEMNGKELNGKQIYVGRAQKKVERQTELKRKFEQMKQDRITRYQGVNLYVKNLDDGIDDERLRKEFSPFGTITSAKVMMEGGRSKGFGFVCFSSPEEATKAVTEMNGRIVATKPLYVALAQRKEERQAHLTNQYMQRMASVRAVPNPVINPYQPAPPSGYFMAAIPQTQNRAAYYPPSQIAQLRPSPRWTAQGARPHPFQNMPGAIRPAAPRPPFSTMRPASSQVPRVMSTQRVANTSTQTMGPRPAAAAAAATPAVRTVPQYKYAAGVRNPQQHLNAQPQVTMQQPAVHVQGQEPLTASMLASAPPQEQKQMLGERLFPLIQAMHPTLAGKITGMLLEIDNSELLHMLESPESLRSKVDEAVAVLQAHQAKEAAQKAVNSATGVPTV
Chain of Nonstructural protein 1 (Q194T2 whole entry): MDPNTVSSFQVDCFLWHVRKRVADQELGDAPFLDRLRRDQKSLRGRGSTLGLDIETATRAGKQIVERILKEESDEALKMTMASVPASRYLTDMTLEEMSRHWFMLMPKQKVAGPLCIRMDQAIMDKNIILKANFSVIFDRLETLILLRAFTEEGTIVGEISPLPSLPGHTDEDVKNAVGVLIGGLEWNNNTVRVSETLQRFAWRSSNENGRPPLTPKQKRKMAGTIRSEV
Chain of Cytochrome P450 3A4 (P08684 whole entry, the tested form may be a part): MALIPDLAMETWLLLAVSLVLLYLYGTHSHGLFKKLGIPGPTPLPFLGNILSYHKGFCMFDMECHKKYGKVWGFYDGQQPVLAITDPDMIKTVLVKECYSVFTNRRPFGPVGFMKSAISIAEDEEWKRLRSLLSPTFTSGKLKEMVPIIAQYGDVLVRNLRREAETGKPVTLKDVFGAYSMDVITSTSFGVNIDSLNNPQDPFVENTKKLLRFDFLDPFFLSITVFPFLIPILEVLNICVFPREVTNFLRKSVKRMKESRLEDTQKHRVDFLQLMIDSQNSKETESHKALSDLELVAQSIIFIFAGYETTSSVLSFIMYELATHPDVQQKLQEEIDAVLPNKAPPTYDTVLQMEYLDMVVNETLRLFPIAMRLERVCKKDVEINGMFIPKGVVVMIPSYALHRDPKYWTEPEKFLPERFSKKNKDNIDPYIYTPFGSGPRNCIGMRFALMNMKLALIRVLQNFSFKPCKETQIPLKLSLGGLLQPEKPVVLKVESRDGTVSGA

For `CN(C)c1ccc(CN(Cc2ccco2)C(=O)c2ccco2)cc1`, which AC50 [1] is on record?
The AC50 was 0.822 µM (active).

With `Cc1cccc(N=Nc2c(O)nc(O)c(C#N)c2C)c1` as the molecule, how does the EC50 [2] read?
The EC50 was 258 µM (active).

With `O=C(Nc1ccc2c(c1)C(=O)NC2=O)c1cccc(C(F)(F)F)c1` as the molecule, how does the IC50 [3] read?
Its IC50 is 9.33 µM (active).

Which AC50 [1] does the source give for `O=C(Nc1nnc(-c2cccnc2)o1)c1cccc([N+](=O)[O-])c1` here?
Its AC50 is 1.61 µM (active).

Which AC50 [4] does the source give for `C=CC[n+]1c(-c2ccc(C)cc2)csc1NNC(=O)Nc1ccccc1` here?
The AC50 was 3.55 µM (inconclusive).

And the AC50 [5]?
The AC50 was 9.27 µM (active).

And the EC50 [6]?
Its EC50 is 1.27 µM (active).

What about the EC50 [7] of the same molecule?
Its EC50 is > 150 µM (inconclusive).

For `COc1ccc(C2C(C#N)=C(/N=C/N3CCOCC3)OC3=C2C(=O)CC(C)(C)C3)cc1OC` (stereo unspecified), which EC50 [8] is on record?
The EC50 was > 300 µM (not active).

What about the EC50 [9] of the same molecule?
The EC50 was > 300 µM (not active).

For `COC(=O)CCC(=O)OC1(C)C(=O)C=C2C=C(C3CC3)OC=C2C1=O` (stereo unspecified), which EC50 [8] is on record?
Its EC50 is 17.7 µM (active).

What about the EC50 [9] of the same molecule?
The EC50 was 68.8 µM (inconclusive).

With `O=C(N/N=C/c1ccncc1)c1ccc(NC(=O)c2cccc(Cl)c2)cc1` as the molecule, how does the IC50 [3] read?
The IC50 was 13.9 µM (active).

With `CCOC(=O)C(C(=O)OCC)C(C(=O)OCC)N1CCOCC1` (stereo unspecified) as the molecule, how does the EC50 [10] read?
Its EC50 is 6.34 µM (active).

What about the EC50 [11] of the same molecule?
Its EC50 is 5.16 µM (active).

Which EC50 [8] does the source give for `NC(=O)c1cccc(/N=C/c2cc(Cl)cc(Cl)c2O)c1` here?
The EC50 was > 300 µM (not active).

And the EC50 [9]?
Its EC50 is > 300 µM (not active).

With `COc1ccc(CSc2nc(O)cc(=O)n2CC(C)C)cc1F` as the molecule, how does the AC50 [1] read?
The AC50 was 0.949 µM (active).

With `CCCCC(=O)OCC(=O)c1[nH]c(C)c(C(=O)OCC)c1C` as the molecule, how does the EC50 [2] read?
The EC50 was > 260 µM (inactive).

For `COC(=O)C1=C(C)N(c2cc(Cl)cc(Cl)c2)C(=O)C1`, which EC50 [10] is on record?
Its EC50 is 35.6 µM (active).

And the EC50 [11]?
Its EC50 is 42.9 µM (active).

For `COc1cccc(N2C(=O)NC(=O)/C(=C/Nc3c(C)n(C)n(-c4ccccc4)c3=O)C2=O)c1`, which EC50 [8] is on record?
The EC50 was > 300 µM (not active).

What about the EC50 [9] of the same molecule?
The EC50 was > 300 µM (not active).

With `CC(C)OC(=O)CC(=O)CSc1nc2c(cc1C#N)CCC2` as the molecule, how does the EC50 [10] read?
Its EC50 is 5.82 µM (active).

And the EC50 [11]?
The EC50 was 8.4 µM (active).

For `C#CCOCCOCCOCCNc1nc(N2CCN(C(=O)[C@H]([C@@H](C)CC)n3cc([C@@H](N)CO)nn3)CC2)nc(N2CCN(C(=O)[C@H]([C@@H](C)CC)n3cc([C@@H](N)CC(C)C)nn3)CC2)n1`, which IC50 [12] is on record?
The IC50 was 43.1 µM (inactive).

And the EC50 [8]?
Its EC50 is 24.4 µM (active).

And the EC50 [9]?
Its EC50 is 18 µM (active).

And the IC50 [13]?
Its IC50 is > 66 µM (inactive).

For `CCNc1ccc(S(=O)(=O)N(C)C)cc1NCC(=O)Nc1ccccc1F`, which AC50 [1] is on record?
The AC50 was 1.8 µM (active).

With `COc1ccc(Br)cc1CNc1ccc2[nH]c(O)nc2c1` as the molecule, how does the AC50 [1] read?
The AC50 was 1.08 µM (active).

Which IC50 [3] does the source give for `O=C(COC(=O)c1ccccc1O)NCc1ccco1` here?
Its IC50 is 9.53 µM (active).

With `CC[N+]1(C)CC2CCC(C)(C1)C2(C)C` (stereo unspecified) as the molecule, how does the IC50 [3] read?
The IC50 was 27.8 µM (active).

For `O=C(CN1C(=O)c2cccc3cccc(c23)C1=O)N1CCN(Cc2ccc3c(c2)OCO3)CC1`, which IC50 [14] is on record?
Its IC50 is > 100 µM (active).

Which EC50 [2] does the source give for `COc1ccc(CCNCc2ccc(Br)cc2)cc1OC` here?
The EC50 was > 260 µM (inactive).

With `Cc1cc(S(=O)(=O)N2CCN(c3ccccc3O)CC2)c(C)s1` as the molecule, how does the AC50 [1] read?
Its AC50 is 0.156 µM (active).

For `Cc1ccc(NC2OC(CO)C(O)C2O)cc1[N+](=O)[O-]` (stereo unspecified), which EC50 [2] is on record?
Its EC50 is > 260 µM (inactive).

What about the IC50 [15] of the same molecule?
Its IC50 is > 50 µM (not active).

For `O=C(CCS(=O)(=O)c1ccc(Br)cc1)NC1CCCC1`, which IC50 [3] is on record?
Its IC50 is 9.44 µM (active).

Which AC50 [1] does the source give for `CC(=O)Nc1ccc(N2C(=O)CSC2c2ccccc2[N+](=O)[O-])cc1` (stereo unspecified) here?
Its AC50 is 0.517 µM (active).

With `COc1ccccc1NC(=O)C1=C(C)N(c2ccccc2)C(S)=NC1c1cccc(C(F)(F)F)c1` (stereo unspecified) as the molecule, how does the EC50 [10] read?
Its EC50 is 14.3 µM (active).

And the EC50 [11]?
Its EC50 is 13.7 µM (active).

What does the source list for `O=c1[nH]c(CN2CCc3ccccc3C2)nc2ccccc12`?
IC50 [12]: > 66 µM (inactive); EC50 [8]: > 300 µM (not active); EC50 [9]: > 300 µM (not active); IC50 [13]: > 66 µM (inactive)

Which IC50 [14] does the source give for `CCN(CC)c1ccc(Nc2nc(N3CCOCC3)c3ccccc3n2)cc1` here?
The IC50 was 11.5 µM (active).

Which AC50 [1] does the source give for `Cc1ccc(-c2nc(-c3ccccn3)sc2CC(=O)O)cc1` here?
Its AC50 is 0.226 µM (active).

With `O=C(NCc1ccccn1)C(=O)N/N=C/c1ccccc1O` as the molecule, how does the IC50 [14] read?
Its IC50 is 14 µM (active).

With `O=C(Nc1c(C(=O)c2ccccc2)oc2ccccc12)c1cc(-c2ccccc2O)n[nH]1` as the molecule, how does the EC50 [2] read?
The EC50 was > 260 µM (inactive).

For `O=C(CSc1nnc(Nc2ccccc2F)s1)NC(=O)CN1CCCC1=O`, which IC50 [3] is on record?
The IC50 was 5.43 µM (active).
